Reference: paper PMC2771899, “Augmentation of Reverse Transcription by Integrase through an Interaction with Host Factor, SIP1/Gemin2 Is Critical for HIV-1 Infection” (PLoS ONE, 2009)
Entries after “also recorded” stand apart in the source; their conditions may differ.

What was measured:
HIV-1 cDNA synthesis = type: cell-based; details: PMA-stimulated THP-1 cells, 100 µM peptide 16 h before and 6 h during infection; R/U5 and R/gag, 24 h post-infection
[1] = test system: viral entry and RT enzymatic activity; assay: Direct effect on viral entry and RT enzymatic activity; parameters: species or system HIV-1; details: data not shown
rSIP1 = assay: Dot-blot binding of peptide to SIP1; details: 40 or 400 nmol peptide on nitrocellulose, rSIP1 (5 µg), anti-SIP1 antibody
[2] = test system: HIVNL43-luc/VSV-G pseudotypes; type: cell-based, HIV-1
MLV cDNA synthesis = type: cell-based, Moloney murine leukemia virus; details: PMA-stimulated THP-1 cells, 100 µM peptide, MMLV vector pFB-Luc; R/U5 24 h post-infection; compared with DMSO or control peptide
[3] = test system: IN-SIP1 interaction (His-IN, rSIP1); assay: Dot-blot inhibition of IN-SIP1 interaction by peptide; type: binding, HIV-1
[4] = target: T1, IN-SIP1 mediated RT activity (Homo sapiens, UniProt O14893); assay: In vitro RT assay, inhibition of IN-SIP1 mediated RT activity by peptide; type: biochemical, HIV-1
T1 construct: the SIP1 gene was amplified from pTRE-SIP1 (kindly provided by Dr. G. Dreyfuss) by PCR and cloned into BamHI and EcoRI sites of pGEX-6P-2; GST (N, cleaved yes); made in house; host or cells: E. coli BL21 (GST-SIP1), E. coli M15 (His-IN)
T1 sequence (O14893 1-280): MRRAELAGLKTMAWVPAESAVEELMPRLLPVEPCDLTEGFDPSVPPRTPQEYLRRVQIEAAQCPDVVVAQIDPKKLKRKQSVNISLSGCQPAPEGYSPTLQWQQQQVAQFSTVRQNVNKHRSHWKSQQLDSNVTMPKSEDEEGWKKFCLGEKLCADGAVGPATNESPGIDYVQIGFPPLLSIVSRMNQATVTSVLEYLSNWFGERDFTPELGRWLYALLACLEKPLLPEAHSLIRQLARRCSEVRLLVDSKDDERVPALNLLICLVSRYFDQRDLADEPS

RT = assay: Direct binding to RT; parameters: species or system HIV-1; details: data not shown
HIV-1 RT (GST-RTp66) = assay: In vitro RT assay, stimulation by IN and SIP1; type: biochemical
Procedure: (§1) Figure 4 Augmentation of reverse transcription by HIV-1 IN and SIP1 in vitro. (A, B) The in vitro RT assay was carried out with 35 fmoles of HIV-1 RT (GST-RTp66) in the absence or presence of different amounts of full-length rIN (WT-IN). The truncated form of IN (IN1–70) that lack SIP1 binding domains was also tested in apparel as a control. The amount of HIV-1 cDNA was measured by real-time PCR using the HIV-1 R/U5 (A) or R/gag (B) primer pair. Significant augmentation (p<0.05) by WT-IN in the levels of HIV-1 cDNA compared with the level without IN (0 fmole) was indicated by asterisks. (C) The in vitro RT assay was carried out as described in (A) in either the absence or presence of […] of WT-IN, together with different amounts of rSIP1. (D) The in vitro RT assay was carried out with 3.5 fmoles of WT-IN (black bar) or IN1–70 (slash bar), in either the absence (−) or presence (+) of 50 fmoles of rSIP1. (E) The oligo(dT) cellulose resin was incubated with in vitro transcribed HIV-1 RNA for 1 h. After incubation, 10 µg of GST-RT in either the absence or presence of His-IN or rSIP1 was added and incubated for 2 h. After four washes with the IN storage buffer, precipitates were analyzed by immunoblot analysis using an anti-GST antibody.
For preparation of the viral RNA template for in vitro transcription, the DNA sequences corresponding to HIV-1 lentiviral genomic RNA (pCS-CDF-CG-PRE) were subcloned into pGEM-T vector (pGEM-CS-CDF). Then, the annealed oligonucleotides of TCGA(A)30G and TCGA(T)30C were inserted into the pGEM-CS-CDF vector at the Sal-I site for addition of the poly(A) tail (the pGEM-CS-CDF-PolyA). Synthesized HIV RNA with the poly(A) 30 tail were produced by in vitro transcription using RiboMAX™ Large Scale RNA Production System-T7 (Promega) with Ribo m^7 G Cap analog (Promega) to mimic the capped structure of mRNA. Transcription products of HIV-1 RNA (4.9 kb) were purified with spin columns MicroSpin™ G-25 Columns (American Biosciences), followed by gel-filtration using NAP-5 columns, (American Biosciences) and were used in the in vitro RT assay. The reverse transcription reactions were carried out in a final volume of 20 µl RT reaction buffer consisting of 50 mM Tris-HCl (pH 8.3), 75 mM KCl, 3 mM MgCl2, 10 mM DTT, 1 mM dNTPs, 0.04∼0.4 fmoles of HIV-1 RNA templates and 0.4∼4 fmoles of RNA primer, 3.5∼35 fmol HIV-1 RT (GST-RTp66). The reaction was carried out at 42°C for 30 min in either the absence or presence of different amount of His-IN and recombinant SIP1. The amount of the cDNA product was measured by real-time PCR using primers for the R/U5 or R/gag region.
Supplementary file pone.0007825.s004.pdf: Figure S4 Stoichiometry and order of IN and SIP1 for their stimulatory effect of cDNA synthesis. (A) The in vitro RT assay was carried out in the absence or presence of different amount of the His-IN (0.2 or 1 pmol) or recombinant SIP1 (0.2 or 1 pmol) as described in Figure 4. The amount of cDNA product was measured by real-time PCR using primers for HIV-1 R/U5 region. (B) The in vitro RT assay was carried out with 5 pmoles of His-IN in the absence or presence of different amount SIP1 (1 or 5 pmol). (C) The in vitro RT assay was carried out in the absence or presence of the His-IN and recombinant SIP1 with [α32P]dCTP and subjected to SDS-PAGE analysis in denatured condition. (D) In vitro RT assay was performed as described above, except that rIN with rRT and rSIP1 were pre-incubated on ice in different combinations and orders (inlet Table). Then, reaction was initiated by adding mixture containing the template RNA/PBS-primer and dNTPs. (0.10 MB PDF) Click here for additional data file.

RT on viral RNA = assay: RT assembly on viral RNA; type: biochemical; details: HIV-1 RNA on oligo(dT) cellulose, 10 µg GST-RT, 2 h, immunoblot anti-GST (Figure 4E)
Procedure: as §1
Next, the effects of IN and SIP1 on the assembly of RT on viral RNA was examined. […] Levels of RT on viral RNA were determined by immunoblot assay. […]

Substance | Viral cDNA synthesis, % of control (HIV-1 cDNA synthesis) | Direct effect on viral entry and RT enzymatic activity [1] | Direct binding of peptide to rSIP1 (rSIP1) | HIV-1 infectivity, % of control [2] | Effect on MLV cDNA synthesis (MLV cDNA synthesis) | Peptide concentration that reduces His-WT binding to SIP1 to non-specific background levels ([3]; His-IN (10 µg) on nitrocellulose, 5 µg rSIP1) | Interference with binding of full-length IN (His-WT) to SIP1 ([3]; His-IN (10 µg) on nitrocellulose, 5 µg rSIP1, peptide present) | Inhibitory effect on His-WT binding to SIP1 relative to IN231–251 ([3]; IN60–80 versus IN231–251) | IC50, inhibition of IN-SIP1 mediated RT activity ([4]; 35 fmol RT, 3.5 fmol His-IN, 50 fmol rSIP1, 42°C, 30 min, 20 µl, real-time PCR) | Effect on IN-SIP1 mediated RT activity ([4]; 35 fmol RT, 3.5 fmol His-IN, 50 fmol rSIP1, cDNA relative to control) | Inhibitory effect on IN-SIP1 mediated RT activity relative to IN231–251 ([4]; IN60–80 versus IN231–251) | Effect on IN-mediated RT stimulatory effect and HIV-1 replication ([4]; summary statement) | Direct binding to RT (RT) | Effect of SIP1 on RT activity at higher amounts of IN (HIV-1 RT (GST-RTp66); 5 pmoles His-IN, SIP1 1 or 5 pmol (Figure S4B)) | Stimulation of RT activity by SIP1 with IN1–70 (HIV-1 RT (GST-RTp66); 3.5 fmoles IN1–70, 50 fmoles rSIP1, P = 0.98) | Stimulation of RT activity by SIP1 in presence of full-length IN (HIV-1 RT (GST-RTp66); 3.5 fmoles WT-IN, 50 fmoles rSIP1, P = 0.001) | Enhancement of IN-stimulated RT activity by SIP1 (HIV-1 RT (GST-RTp66); WT-IN plus different amounts of rSIP1 (Figure 4C)) | Effect of pre-incubation order on stimulatory effect (HIV-1 RT (GST-RTp66); pre-incubation of RT and IN before SIP1, on ice (Figure S4D)) | Stimulation of RT activity by SIP1 alone (HIV-1 RT (GST-RTp66); without IN, P = 0.69) | Level of RT on viral RNA (RT on viral RNA)
IN60–80: synthetic peptide corresponding to the residues of 60–80 of HIV-1 IN (IWQLDCTHLEGKVILVAVHVA; Integrase; UniProt P04585 1207-1227, looked up, fragment) | less than 25 % of control | does not directly suppress viral entry and RT enzymatic activity | efficiently bound to rSIP1 | 20–25 % of control | no significant inhibitory effect | About 5 µM | significantly interfered with the binding of the full-length IN (His-WT) to the SIP1 protein | more than 10 times | ~10 pmoles per reaction | significantly reduced the IN-SIP1 mediated RT activity in a dose-dependent manner | more than 100 times | specifically block IN-mediated RT stimulatory effect and HIV-1 replication | – | – | – | – | – | – | – | –
SIP1: survival motor neuron-interacting protein 1, recombinant | – | – | – | – | – | – | – | – | – | – | – | – | cannot bind to RT directly | not evident; also recorded: could not observed when high amount of IN protein was present | no significant | Significant stimulation of RT activity | further enhanced by SIP1 in a dose-dependent manner | most effective stimulatory effect | no significant | enhanced RT assembly on viral RNA
